{"source": "patent US20100297109A1", "about": "“METHODS FOR INHIBITING FASCIN” (Cornell University, priority 2007, published 2010)", "key": {"4T1 cells [1]": {"test_system": "4T1 cells", "conditions": "read-out: IC50, 4T1 cell migration, cited from earlier work"}, "[2]": {"test_system": "several types of tumor cells", "conditions": "Nakae et al. 2000, cited from earlier work"}, "4T1 tumor cells": {"test_system": "4T1 tumor cells", "assay": "4T1 mouse mammary tumor model, spontaneous lung metastasis", "assay_type": "in vivo"}, "[3]": {"test_system": "mouse breast tumor 4T1 cells", "assay": "Wound-healing assay, serum-induced migration of 4T1 cells", "assay_type": "cell-based", "conditions": "2 μM", "experimental": "(§1) Cells. Mouse 4T1 mammary tumor cells and human MDA-MB-231 breast tumor cells were obtained from ATCC and have been described previously (Shan et al. 2005, Yang et al. 2005). 4T1 cells were cultured in RPMI 1640 medium supplemented with 10% FBS. MDA-MB-231 cells were cultured in DMEM supplemented with 10% FBS. Wound-healing assay. The wound-healing assay involves observing whether confluent cells can migrate across a scrape or wound in the cell layer. Cell migration assays were performed as described previously (Yang et al. 2005, Shan et al 2006). Tumor cells were plated in a 24-well plate coated with gelatin in standard media. After the cells grew to confluence, wounds were made in the confluent layer of cell using a sterile instrument such as a sterile pipette tip. The cells were washed with Phosphate Buffered Saline (PBS) or other sterile solutions and then the migration was induced by adding medium supplemented with 10% FBS. When the wound for the positive control closed, cells were fixed with 3.7% formaldehyde and stained with crystal violet staining solution. […] Photographs several random regions of the filter facing the second chamber are taken and the number of cells counted to calculate the average number of cells that had transmigrated."}, "4T1 cells [4]": {"test_system": "4T1 cells", "assay": "Boyden chamber cell migration assay, serum-induced migration of 4T1 cells", "assay_type": "cell-based, mouse", "conditions": "FIGS. 1C and 1D", "experimental": "as §1, with “media.” for “media. After the cells grew to confluence, wounds were made in the confluent layer of cell using a sterile instrument such as a sterile pipette tip. The cells were washed with Phosphate Buffered Saline (PBS) or other sterile solutions and then the migration was induced by adding medium supplemented with 10% FBS. When the wound for the positive control closed, cells were fixed with 3.7% formaldehyde and stained with crystal violet staining solution.”\n(§2) Boyden Chamber Cell Migration Assay. […] Three randomly selected fields (10× objectives) on the lower side of the insert were photographed, and the migrated cells were counted. The migration was expressed as either the average number of migrated cells in a field or as percentage of migrated cells in positive control. Percentage was calculated with the formula P=100×(M−Mnc)/Mpc, where P is the percentage of migrated cells, M is the number of migrated cells, Mnc is the number of migrated cells in negative controls, and Mpc is the number of migrated cells in positive controls."}, "[5]": {"test_system": "human breast tumor MDA-MB-231 cells", "assay": "Wound-healing assay, serum-induced migration of MDA-MB-231 cells", "assay_type": "cell-based", "conditions": "20 μM", "experimental": "as §1"}, "[6]": {"test_system": "mouse embryonic fibroblast (MEF) cells", "assay": "Wound-healing assay, serum-induced migration of MEF cells", "assay_type": "cell-based", "conditions": "200 μM"}, "[7]": {"test_system": "human breast tumor MDA-MB 231 cells", "assay": "Cell migration assay, MDA-MB-231 cells", "assay_type": "cell-based", "experimental": "as §1, with “media.” for “media. After the cells grew to confluence, wounds were made in the confluent layer of cell using a sterile instrument such as a sterile pipette tip. The cells were washed with Phosphate Buffered Saline (PBS) or other sterile solutions and then the migration was induced by adding medium supplemented with 10% FBS. When the wound for the positive control closed, cells were fixed with 3.7% formaldehyde and stained with crystal violet staining solution.”\nas §2"}, "[8]": {"test_system": "human prostate tumor PC-3 cells", "assay": "Cell migration assay, PC-3 cells", "assay_type": "cell-based"}, "[9]": {"test_system": "human colon tumor Lovo cells", "assay": "Cell migration assay, Lovo cells", "assay_type": "cell-based"}, "4T1 cells [10]": {"test_system": "4T1 cells", "conditions": "serum, Shan et al. 2005; cited from earlier work"}, "fascin": {"molecular_target": "fascin (Homo sapiens, UniProt Q16658)", "assay": "GST-fascin and biotin-macroketone interaction", "assay_type": "binding", "set-up": "made in house; host or cells: Escherichia coli BL21", "conditions": "excess unlabeled compound", "experimental": "Whole cell lysates from 4T1 mouse breast tumor cells were made. After preclearing the cell lysate with immobilized neutravidin biotin binding protein (Pierce, IL, USA) to remove biotin and avidin-binding proteins, the cell lysates were loaded to a column packed with the biotin-labeled macroketone (conjugated to neutravidin beads). A control column packed with free biotin and neutravidin beads was run side-by-side. After washing the column with 10 bed volumes of lysis buffer with 300 mM NaCl, the bound proteins were eluted with 0.1 M Glycine-HCl at pH 2.8 according to the manufacturer's instruction. […] Protein Expression and Purification. Recombinant GST-fascin fusion protein was produced in BL21 Escherichia coli. A 1-liter culture was grown to an A600 reading of 1.0 and then induced by addition of 0.3 mM isopropyl 1-thio-D-galactopyranoside (IPTG) for 12 hours at 25° C. Cells were flash frozen and then lysed by sonication in Tris-buffered saline. The supernatant was then incubated with glutathione-Sepharose for 2 h at 4° C. After extensive washing, GST-fascin was eluted and concentrated with a Centricon Plus-20 (Millipore). To remove the GST tag from the fusion protein, beads were incubated with thrombin overnight at 4° C. The supernatant was collected and concentrated. GST-fascin and Biotin-macroketone Interaction. […] Proteins associated with biotin-macroketone were precipitated with Untralink-immobilized NeutrAvidin agarose (Pierce). After extensive washing, bound proteins were eluted with SDS sample buffer and resolved by 10% SDS-PAGE. F-Actin Bundling Assay. Actin bundling activity was measured by low speed centrifugation assay and fluorescence microscopy. In low-speed centrifugation assay, monomeric rabbit G-actin was induced to polymerize at room temperature in F-actin buffer (20 mM Tris-HCl at pH 8, 1 mM ATP, 1 mM DTT, 2 mM MgCl2 and 100 mM KCl). Recombinant fascin proteins or control buffer were subsequently incubated with F-actin for 60 min at room temperature and centrifuged for 30 min at 10,000 g in an Eppendorf 5415D table-top centrifuge."}, "[11]": {"conditions": "Gaul et al. 2004; cited from earlier work"}, "[12]": {"conditions": "Njardarson et al. 2004, Gaul et al. 2004"}}, "note": "Where two headings read alike, the source gives them in different places.", "data": [{"smiles": "CO[C@H]1/C=C/CC/C=C/C(=O)OC([C@H](C)C(=O)CCCC2CC(=O)NC(=O)C2)/C(C)=C\\[C@@H](C)[C@@H]1O", "note": "(some centres unmarked) [migrastatin, Migrastatin]", "values": [{"measurement": "IC50", "setting": "4T1 cells [1]; [12]", "result": 29, "unit": "µM"}, {"measurement": "biosyntheses of DNA, RNA, and protein", "setting": "[2]", "result": "has no effect"}, {"measurement": "migration of tumor cells in vitro", "setting": "[2]; high micromolar concentrations", "result": "inhibits the migration"}]}, {"smiles": "C=CC(OC)C(O[Si](C)(C)C(C)(C)C)C(C)C=C(C)CO", "note": "(centres unmarked) [migrastatin semi-core, reference compound]", "values": [{"measurement": "effect on 4T1 tumor metastasis", "setting": "4T1 tumor cells; 10 and 20 mg/kg", "result": "did not significantly reduce"}, {"measurement": "IC50", "setting": "4T1 cells [1]; [12]", "result": 40, "unit": "µM"}]}, {"smiles": "COC1C=CCCCCC(=O)NCC(C)=CC(C)C1O", "note": "(centres unmarked) [macrolactam, Migrastatin lactam]", "values": [{"measurement": "inhibition of serum-induced migration (wound-healing)", "setting": "[3]", "result": "inhibited the migration"}, {"measurement": "IC50", "setting": "4T1 cells [4]", "result": 0.255, "unit": "µM"}, {"measurement": "inhibition of serum-induced migration (wound-healing)", "setting": "[5]", "result": "inhibited the migration"}, {"measurement": "effect on serum-induced migration (wound-healing)", "setting": "[6]", "result": "had no effect"}, {"measurement": "inhibition of migration", "setting": "[7]", "result": "inhibited the migration"}, {"measurement": "inhibition of migration", "setting": "[8]", "result": "inhibited the migration"}, {"measurement": "inhibition of migration", "setting": "[9]", "result": "inhibited the migration"}, {"measurement": "formation of lamellipodia at the leading edge", "setting": "4T1 cells [10]", "result": "inhibited the formation of lamellipodia"}, {"measurement": "competition of binding of biotin-conjugated macroketone to fascin", "setting": "fascin", "result": "competed the binding"}]}, {"smiles": "COC1C=CCCCCC(=O)OCC(C)=CC(C)C1O", "note": "(centres unmarked) [macrolactone]", "values": [{"measurement": "effect on 4T1 tumor metastasis", "setting": "4T1 tumor cells; 20 mg/kg", "result": "statistically significant, it was much less than those of macroketone and macrolactam"}, {"measurement": "IC50", "setting": "4T1 cells [1]; macrolactone, Gaul et al. 2004", "result": 0.024, "unit": "µM"}, {"measurement": "half-life in mouse plasma", "setting": "[11]", "result": "< 5", "unit": "min"}]}]}
